Measured values: EP4781984A1 (Beyang Therapeutics Co., Ltd., priority 2023, dated 2025)
pIC50: −log10 of the molar value. Converted amounts (≈) assume the structure as drawn.

Tests used:
VEGFR3 = target: T1, VEGFR3 (Homo sapiens, UniProt P35916); test: Kinase inhibitory activity, Mobility Shift Assay (VEGFR3); type: biochemical
T1 construct: purchased Invitrogen PV4129
Method: (§1) Assay for Inhibitory Activity of Compounds Against VEGFR and EGFR Kinases
(§2) This assay directly monitors the inhibitory activity of compounds on kinase phosphorylation by measuring non-phosphorylated and phosphorylated substrates in the kinase reaction using Mobility Shift Assays/IMAP™ analysis. Table 2. Reagents and Instruments
(§3) Kinase and DTT were added to 1X kinase buffer to form a 2.5X kinase solution; 10 µL of the 2.5X kinase solution was transferred to a 384-well reaction plate, and 1X kinase buffer was added to the negative control wells. The plate was incubated at room temperature for 10 minutes; FAM-labeled peptide, MgCl2, ATP, and other reagents were added to 1X kinase buffer to form a 2.5X substrate solution; 10 µL of the above 2.5X substrate solution was transferred to the 384-well reaction plate; the plate was incubated at 28°C for varying times, and then 25 µL of stop solution was added to the 384-well reaction plate to terminate the reaction. Conversion rate data were read on a CaliperEZ Reader II. […] IC50 values were fitted using XLFit excel add-in version 5.4.0.8. Y = Bottom + (Top−Bottom)/(1 + […]) [formula]
(§4) X is the log value of compound concentration, Y is the inhibition rate (% inhibition).

melanin = test: Compound binding to melanin; type: in vitro ADME; details: cuttlefish (Sepia officinalis), melanin suspension (1 mg/mL), percentage of free drug (not bound to melanin), 2 µM compound, melanin 1 mg/mL in PBS pH 7.4, 37°C
In short: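 Compound at 2 µM final incubated with 1 mg/mL Sepia melanin in PBS pH 7.4, 37°C, 2 hours with shaking; blank in PBS with 0.1% BSA. Supernatant concentration by LC-MS/MS. Fb = 100 − (Ctest/Ccontrol) × 100%.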

VEGFR1 = target: T2, VEGFR1 (Homo sapiens, UniProt P17948); test: Kinase inhibitory activity, Mobility Shift Assay (VEGFR1); type: biochemical
T2 construct: purchased Invitrogen PR6731B
Method: as §1, §2, §3, §4

[1] = Thermodynamic solubility test; type: physicochemical; details: buffer solution, aqueous buffer, thermodynamic from solid; thermodynamic solubility, room temperature, 8 hours shaking; buffers pH 2.0, 6.5, 7.4 used, pH of the tabulated value not given
In short: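 Samples sonicated 10 min, shaken 8 h at room temperature, re-sonicated and centrifuged at 13000 rpm for 15 min. Supernatant recentrifuged and analysed by LC-MS, with concentrations quantified against a 3–5 point calibration curve.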

VEGFR2 = target: T3, VEGFR2 (Homo sapiens, UniProt P35968); test: Kinase inhibitory activity, Mobility Shift Assay (VEGFR2); type: biochemical
T3 construct: purchased Carna 08-191
Method: as §1, §2, §3, §4

[2] = Ophthalmic formulations based on polyethylene glycol series vehicles: composition and state (Example 7); type: physicochemical; details: Table 12: 1mg/ml; Polyethylene glycol 400 5, Hydroxypropyl-β-cyclodextrin 10, Tris-HCl buffer (pH 8.3) 10mM, Hydroxypropyl methylcellulose 1, Poloxamer 188 1
Excerpt: In the following ophthalmic formulation preparation examples, "solution" refers to a clear, transparent liquid without visible insoluble matter. "Near-clear solution" refers to a liquid that appears close to a solution upon visual observation but may contain a small amount of insoluble particles or have a slightly opaque color. "Suspension" refers to a liquid that is visibly turbid or opaque. "Gel" refers to a completely or partially gel-like solid.
Example 7: Ophthalmic Formulations Based on Polyethylene Glycol Series Vehicles
According to the formulation composition shown in the tables below, weigh the compound powder, add it to polyethylene glycol 400, and sonicate until dissolved or nearly dissolved (heat to 50°C if necessary). Add this to a Tris-HCl buffer solution containing hydroxypropyl-β-cyclodextrin, poloxamer 188, and gellan gum (or other viscosity modifier), vortex to mix, and prepare into an eye drop formulation.

[3] = Plasma and ocular tissue distribution after single ocular administration of formulations in Dutch Belted rabbits (Example 9); type: in vivo; details: for concentration at 0.5 h: male, rabbit, plasma, other: ocular administration (eye drops)
Method: Male Dutch Belted rabbits used in this experiment were purchased from Pizhou Dongfang Breeding Co., Ltd., with animal weights ranging from 1.5 to 2.5 kg. All procedures performed on experimental animals in this experiment complied with the relevant SOP requirements of Suzhou Sunstone New Drug Development Co., Ltd. and were approved by the Institutional Animal Care and Use Committee (IACUC) of Suzhou Sunstone New Drug Development Co., Ltd. Formulation Preparation: Weigh approximately 1 mg of the test substance into a glass vial. After necessary calculation/conversion, sequentially add the eye drop formulation vehicle (Tris-HCl buffer (0.05 mol/L): Tween 80: 0.5% CMC-Na = 49: 1:50). Vortex and sonicate after adding Tris-HCl buffer and Tween 80, then add 0.5% CMC-Na, vortex, and sonicate or cut if necessary, to prepare a 1 mg/mL dosing formulation. All prepared dosing formulations were freshly prepared on the day of administration, sampled, and the actual concentration of the dosing formulation was determined.
On the day of the experiment, animals were administered 1 mg/mL (0.05 mg/eye, 50 µL/eye). There were 2 animals per group. Animals were euthanized at 0.5, 4, or 8 hours after administration, respectively, by an appropriate method, and blood samples and ocular tissues (i.e., cornea, retina, choroid, and sclera) were collected. The collected 1 mL of whole blood was placed in an EDTA-K2 anticoagulant tube, inverted several times to mix thoroughly, and centrifuged (1500-1600 g) for 10 minutes within 30 minutes to separate plasma. The obtained plasma samples were stored at -80°C for bioanalysis. After collection, ocular tissues were washed with pre-cooled saline, dried, and stored at -80°C or under equivalent conditions for subsequent tissue homogenization and sample analysis. For ocular tissues requiring homogenization, the entire or a portion of the tissue was selected, accurately weighed, and homogenized at a 1:10 ratio with 20% methanol-water. The tissue homogenate was stored at -80°C for sample analysis. The concentrations of each analyte in rabbit ocular tissues and plasma obtained in this experiment were determined using an LC-MS/MS analytical method. The matrices were Dutch rabbit plasma (EDTA-K2 anticoagulated) and rabbit ocular tissue (1:10, 20% methanol-water). Left and right eyes were tested separately. BLOQ (Below the Limit of Quantification) is the lowest analyte concentration that can be quantified with acceptable precision and accuracy. Compounds were diluted 1:10 with homogenate before analysis, and if the concentration after dilution was less than 1 ng/mL, it was marked as BLOQ.
Example 9: Detection of Plasma and Ocular Tissue Distribution after Single Ocular Administration of Formulations in Dutch Belted Rabbits
The experimental procedure refers to Example 6. Animals were administered eye drops at 5 mg/mL (0.25 mg/eye, 50 µL/eye) or 1 mg/mL (0.05 mg/eye, 50 µL/eye), respectively. Table 22 Experimental Results
Except for compound I-32, the other components of Suspension A and Solution B are respectively: • Suspension A: Tris(hydroxymethyl)aminomethane-Hydrochloric Acid Buffer (0.05M): Tween 80: 0.5% (w/v) Sodium Carboxymethylcellulose aqueous solution = 49:1:50 (v/v/v); • Solution B: Polyethylene Glycol 400: 50mM Tris(hydroxymethyl)aminomethane-Hydrochloric Acid Buffer (containing 10% Hydroxypropyl-β-cyclodextrin, 1% Poloxamer 188, 0.3% Gellan Gum Gelrite, w/v) = 5:95 (v/v).

[4] = Solution B, 1 mg/mL (0.05 mg/eye, 50 µL/eye), formulation pH 8.3
[5] = Suspension A, 1 mg/mL (0.05 mg/eye, 50 µL/eye), formulation pH 8.4
[6] = Suspension A, 5 mg/mL (0.25 mg/eye, 50 µL/eye), formulation pH 8.4

T1 sequence (P35916 25-1363): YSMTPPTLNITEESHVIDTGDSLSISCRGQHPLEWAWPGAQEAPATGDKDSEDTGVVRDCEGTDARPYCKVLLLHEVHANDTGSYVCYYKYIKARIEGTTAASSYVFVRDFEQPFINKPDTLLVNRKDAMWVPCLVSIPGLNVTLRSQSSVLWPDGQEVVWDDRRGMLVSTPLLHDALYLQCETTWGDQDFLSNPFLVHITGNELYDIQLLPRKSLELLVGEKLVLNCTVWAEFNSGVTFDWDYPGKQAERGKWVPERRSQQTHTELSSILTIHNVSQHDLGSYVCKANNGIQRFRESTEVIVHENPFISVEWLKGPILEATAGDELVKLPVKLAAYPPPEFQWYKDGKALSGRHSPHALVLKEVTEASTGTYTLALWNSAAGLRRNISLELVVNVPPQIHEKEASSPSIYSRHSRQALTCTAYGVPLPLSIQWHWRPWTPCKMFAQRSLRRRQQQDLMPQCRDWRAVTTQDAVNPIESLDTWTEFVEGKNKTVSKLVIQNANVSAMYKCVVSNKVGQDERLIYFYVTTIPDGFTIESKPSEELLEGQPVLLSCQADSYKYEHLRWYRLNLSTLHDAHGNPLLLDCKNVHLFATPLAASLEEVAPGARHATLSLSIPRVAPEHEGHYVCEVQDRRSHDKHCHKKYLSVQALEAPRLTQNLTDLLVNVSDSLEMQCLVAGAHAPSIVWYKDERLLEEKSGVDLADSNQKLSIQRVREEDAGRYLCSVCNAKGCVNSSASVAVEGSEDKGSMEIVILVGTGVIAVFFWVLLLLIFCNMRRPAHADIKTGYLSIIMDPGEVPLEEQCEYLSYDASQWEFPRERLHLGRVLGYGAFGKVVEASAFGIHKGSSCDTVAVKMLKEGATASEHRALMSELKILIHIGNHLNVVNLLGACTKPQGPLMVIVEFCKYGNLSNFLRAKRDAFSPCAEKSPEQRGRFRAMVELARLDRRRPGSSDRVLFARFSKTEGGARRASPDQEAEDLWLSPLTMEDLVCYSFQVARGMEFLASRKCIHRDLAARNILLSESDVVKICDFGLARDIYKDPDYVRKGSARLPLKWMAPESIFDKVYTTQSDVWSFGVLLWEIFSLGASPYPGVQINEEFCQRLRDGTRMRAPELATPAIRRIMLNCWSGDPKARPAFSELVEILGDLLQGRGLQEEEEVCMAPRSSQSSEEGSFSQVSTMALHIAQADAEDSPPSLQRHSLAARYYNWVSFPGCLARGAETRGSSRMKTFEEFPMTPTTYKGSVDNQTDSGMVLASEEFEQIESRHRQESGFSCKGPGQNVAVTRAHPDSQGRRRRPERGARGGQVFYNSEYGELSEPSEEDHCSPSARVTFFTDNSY
T3 sequence (P35968 20-1356): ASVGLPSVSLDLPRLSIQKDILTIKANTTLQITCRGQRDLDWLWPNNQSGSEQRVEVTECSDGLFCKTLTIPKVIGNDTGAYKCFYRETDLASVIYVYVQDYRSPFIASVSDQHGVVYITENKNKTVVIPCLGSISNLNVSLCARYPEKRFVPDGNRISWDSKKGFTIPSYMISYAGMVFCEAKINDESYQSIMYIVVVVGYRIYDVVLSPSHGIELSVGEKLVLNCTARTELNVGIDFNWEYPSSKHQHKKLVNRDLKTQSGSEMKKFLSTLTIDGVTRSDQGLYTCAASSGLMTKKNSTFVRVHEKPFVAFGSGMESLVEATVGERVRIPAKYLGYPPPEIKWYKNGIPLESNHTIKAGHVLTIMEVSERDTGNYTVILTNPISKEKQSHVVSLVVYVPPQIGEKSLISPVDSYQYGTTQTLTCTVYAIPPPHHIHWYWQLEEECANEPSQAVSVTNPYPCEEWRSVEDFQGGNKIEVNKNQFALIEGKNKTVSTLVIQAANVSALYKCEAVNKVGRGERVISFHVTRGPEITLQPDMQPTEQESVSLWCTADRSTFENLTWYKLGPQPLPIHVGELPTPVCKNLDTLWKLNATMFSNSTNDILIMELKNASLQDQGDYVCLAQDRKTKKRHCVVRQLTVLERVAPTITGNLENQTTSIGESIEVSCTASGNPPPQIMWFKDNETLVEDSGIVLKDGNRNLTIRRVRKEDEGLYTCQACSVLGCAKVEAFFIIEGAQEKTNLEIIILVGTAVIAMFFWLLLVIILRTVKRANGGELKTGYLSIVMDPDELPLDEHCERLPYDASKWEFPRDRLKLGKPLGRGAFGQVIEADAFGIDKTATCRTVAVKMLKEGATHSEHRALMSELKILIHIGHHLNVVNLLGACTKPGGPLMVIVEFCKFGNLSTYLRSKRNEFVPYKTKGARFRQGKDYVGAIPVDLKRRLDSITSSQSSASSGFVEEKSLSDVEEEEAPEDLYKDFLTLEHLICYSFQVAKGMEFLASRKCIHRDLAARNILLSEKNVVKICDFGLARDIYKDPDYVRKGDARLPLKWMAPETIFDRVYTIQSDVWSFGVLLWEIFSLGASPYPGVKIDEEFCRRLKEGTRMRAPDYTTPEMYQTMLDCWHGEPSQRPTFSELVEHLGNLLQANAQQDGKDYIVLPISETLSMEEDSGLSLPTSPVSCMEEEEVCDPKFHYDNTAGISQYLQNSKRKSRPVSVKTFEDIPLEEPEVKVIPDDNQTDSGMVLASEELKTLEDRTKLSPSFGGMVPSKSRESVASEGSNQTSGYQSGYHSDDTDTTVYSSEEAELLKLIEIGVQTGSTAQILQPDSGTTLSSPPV
T2 sequence (P17948 27-1338): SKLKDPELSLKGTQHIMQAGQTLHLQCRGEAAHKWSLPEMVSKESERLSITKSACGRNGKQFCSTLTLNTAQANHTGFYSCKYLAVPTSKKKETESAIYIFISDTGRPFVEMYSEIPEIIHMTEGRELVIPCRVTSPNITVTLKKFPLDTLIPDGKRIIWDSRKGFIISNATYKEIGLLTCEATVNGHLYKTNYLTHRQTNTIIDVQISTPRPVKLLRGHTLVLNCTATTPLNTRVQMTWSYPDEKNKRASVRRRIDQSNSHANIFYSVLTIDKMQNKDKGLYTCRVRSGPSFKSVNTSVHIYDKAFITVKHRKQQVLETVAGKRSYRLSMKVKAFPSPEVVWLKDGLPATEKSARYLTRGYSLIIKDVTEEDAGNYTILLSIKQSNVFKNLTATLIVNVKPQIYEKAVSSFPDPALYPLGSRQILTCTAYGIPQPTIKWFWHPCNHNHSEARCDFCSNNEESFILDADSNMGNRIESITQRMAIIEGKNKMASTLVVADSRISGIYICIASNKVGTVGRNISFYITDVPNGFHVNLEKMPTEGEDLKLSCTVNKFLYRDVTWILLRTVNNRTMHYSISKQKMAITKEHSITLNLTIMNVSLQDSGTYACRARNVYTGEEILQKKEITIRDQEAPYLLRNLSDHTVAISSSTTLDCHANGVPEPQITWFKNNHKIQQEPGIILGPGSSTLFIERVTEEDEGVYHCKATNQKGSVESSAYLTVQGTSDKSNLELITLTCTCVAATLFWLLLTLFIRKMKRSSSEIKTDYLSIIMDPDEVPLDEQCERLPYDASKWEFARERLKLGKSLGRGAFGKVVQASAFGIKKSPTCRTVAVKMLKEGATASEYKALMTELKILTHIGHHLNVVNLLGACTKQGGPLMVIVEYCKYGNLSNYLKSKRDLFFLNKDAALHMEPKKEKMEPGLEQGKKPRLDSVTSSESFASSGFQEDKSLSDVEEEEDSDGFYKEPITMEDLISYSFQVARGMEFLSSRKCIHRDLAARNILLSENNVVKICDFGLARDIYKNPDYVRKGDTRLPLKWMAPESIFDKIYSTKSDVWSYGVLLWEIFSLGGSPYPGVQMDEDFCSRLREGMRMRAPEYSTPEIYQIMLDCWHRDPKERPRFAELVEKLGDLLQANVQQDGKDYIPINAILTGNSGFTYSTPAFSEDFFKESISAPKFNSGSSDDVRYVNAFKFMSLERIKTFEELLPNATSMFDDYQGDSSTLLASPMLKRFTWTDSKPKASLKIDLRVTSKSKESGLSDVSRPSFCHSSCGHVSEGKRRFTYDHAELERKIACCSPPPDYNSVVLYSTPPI

CNC(=O)c1ccccc1Sc1ccc2c(/C=C/c3ccn(CCN4CCCC4)n3)n[nH]c2c1 [Compound I-13]
pIC50 (VEGFR3): ≥ 9.00
fraction unbound at 2 h, 2 µM (melanin): 0.01 to 0.05

CNC(=O)c1ccccc1Sc1ccc2c(/C=C/c3ccc(OCCN4CCOCC4)cn3)n[nH]c2c1 [Compound I-3, N-methyl-2-((3-((E)-2-(5-(2-(morpholin-4-yl)ethoxy)pyridin-2-yl)ethenyl)-1H-indazol-6-yl)thio)benzamide]
pIC50 (VEGFR1): ≥ 9.00
pIC50 (VEGFR3): ≥ 9.00
solubility at 8 h [1]: 0.5 µg/mL (≈ 0.97 µM)
fraction unbound at 2 h, 2 µM (melanin): 0.01 to 0.05

CNC(=O)c1ccccc1Sc1ccc2c(Nc3ccc(OCCN4CCCC4)cn3)n[nH]c2c1 [Compound I-30, N-methyl-2-((3-((5-(2-(pyrrolidin-1-yl)ethoxy)pyridin-2-yl)amino)-1H-indazol-6-yl)thio)benzamide]
pIC50 (VEGFR2): < 7.00
pIC50 (VEGFR1): < 7.00
pIC50 (VEGFR3): < 7.00

CNC(=O)c1ccccc1Sc1ccc2c(/C=C/c3ccc(O)cn3)n[nH]c2c1 [Compound I-10, 2-({3-[(E)-2-(5-hydroxypyridin-2-yl)ethenyl]-1H-indazol-6-yl}thio)-N-methylbenzamide]
pIC50 (VEGFR3): ≥ 9.00

O=C(NC1CC1)c1ccccc1Sc1ccc2c(/C=C/c3cccc(CCCN4CCCC4)n3)n[nH]c2c1 [Compound I-121]
pIC50 (VEGFR2): ≥ 9.00
pIC50 (VEGFR3): ≥ 9.00

CNC(=O)c1ccccc1Sc1ccc2c(/C=C/c3ccc(OC[C@@H]4CCN(C)C4)cn3)n[nH]c2c1 [Compound I-39]
pIC50 (VEGFR2): ≥ 9.00
pIC50 (VEGFR1): ≥ 9.00

CNC(=O)c1ccccc1Sc1ccc2c(/C=C/c3ccc(OCCN4CCCC4)cn3)n[nH]c2c1 [Compound I-6]
pIC50 (VEGFR1): ≥ 9.00
solubility at 8 h [1]: 226 µg/mL (≈ 452 µM)
fraction unbound at 2 h, 2 µM (melanin): 0.01 to 0.05

CN1CCN(c2ccc(/C=C/c3n[nH]c4cc(Sc5ccccc5C(=O)NC5CC5)ccc34)nc2)CC1 [Compound I-38, N-cyclopropyl-2-({3-[(E)-2-[5-(4-methylpiperazin-1-yl)pyridin-2-yl]ethenyl]-1H-indazol-6-yl}thio)benzamide]
pIC50 (VEGFR2): ≥ 9.00
pIC50 (VEGFR1): ≥ 9.00
pIC50 (VEGFR3): ≥ 9.00
fraction unbound at 2 h, 2 µM (melanin): 0.01 to 0.05

CNC(=O)c1c(F)cccc1Sc1ccc2c(/C=C/c3ccc(OCCN4CCCC4)cn3)n[nH]c2c1 [Compound I-36, 2-fluoro-N-methyl-6-({3-[(E)-2-{5-[2-(pyrrolidin-1-yl)ethoxy]pyridin-2-yl}ethenyl]-1H-indazol-6-yl}sulfanyl)benzamide]
pIC50 (VEGFR1): < 7.00
solubility at 8 h [1]: 16.2 µg/mL (≈ 31.3 µM)
fraction unbound at 2 h, 2 µM (melanin): > 0.05

CNC(=O)c1ccccc1Sc1ccc2c(C#Cc3cc(OCCN4CCCC4)ccn3)n[nH]c2c1 [Compound I-23]
pIC50 (VEGFR3): < 7.00
solubility at 8 h [1]: 859 µg/mL (≈ 1730 µM)
fraction unbound at 2 h, 2 µM (melanin): 0.01 to 0.05

CNC(=O)c1ccccc1Sc1ccc2c(/C=C/c3cnn(CCCN4CCCC4)c3)n[nH]c2c1 [Compound I-32, N-methyl-2-((3-((E)-2-(1-(3-(pyrrolidin-1-yl)propyl)-1H-pyrazol-4-yl)ethenyl)-1H-indazol-6-yl)thio)benzamide]
solubility at 8 h [1]: 327 µg/mL (≈ 672 µM)
fraction unbound at 2 h, 2 µM (melanin): 0.01 to 0.05
State Description: pH [2]: ~8
State Description: state [2]: solution
Choroid AUC [3, 4]: 381 ng·h/g
Conjunctiva AUC [3, 4]: 2142 ng·h/g
Cornea AUC [3, 4]: 590 ng·h/g
Plasma Concentration 0.5h [3, 4]: BLOQ
Retina AUC [3, 4]: 784 ng·h/g
Sclera AUC [3, 4]: 998 ng·h/g
Choroid AUC [3, 5]: 526 ng·h/g
Conjunctiva AUC [3, 5]: 6157 ng·h/g
Cornea AUC [3, 5]: 3380 ng·h/g
Iris AUC [3, 5]: 162 ng·h/g
Retina AUC [3, 5]: 330 ng·h/g
Sclera AUC [3, 5]: 2175 ng·h/g
Choroid AUC [3, 6]: 1594.5 ng·h/g
Conjunctiva AUC [3, 6]: 17380.5 ng·h/g
Cornea AUC [3, 6]: 5175 ng·h/g
Iris AUC [3, 6]: 549.5 ng·h/g
Retina AUC [3, 6]: 613 ng·h/g
Sclera AUC [3, 6]: 2439.5 ng·h/g
concentration at 0.5 h [3, 5]: 2.4 ng/mL
concentration at 0.5 h [3, 6]: 5.6 ng/mL

CN(C)Cc1ccc(/C=C/c2n[nH]c3cc(Sc4ccccc4C(=O)NC4CC4)ccc23)nc1 [Compound I-40, N-cyclopropyl-2-((3-((E)-2-(5-((dimethylamino)methyl)pyridin-2-yl)ethenyl)-1H-indazol-6-yl)thio)benzamide]
pIC50 (VEGFR1): ≥ 9.00
fraction unbound at 2 h, 2 µM (melanin): 0.01 to 0.05
